Measured values from patent US8519096B2, “Citrullinated peptides for diagnosing and prognosing rheumatoid arthritis” (Nestec S.A., priority 2009, dated 2013).
Non-standard residues stand in square brackets, D forms with d. No end group written: not given here. *: point of attachment. Biotin = O=C1N[C@H]2[C@H](CS[C@H]2CCCCC(=O)*)N1; Cit = NC(=O)NCCC[C@H](N)C(=O)O

System: IgG ACPAs
Assay: ACPA ELISA with anti-human IgG secondary antibody
Format: binding
Settings: for IgG ACPA positive response (strong/moderate): Example 7, FIGS. 20-27
Procedure: The synthetic citrullnated peptides set forth in Example 6, which were designed from synovial proteins, were synthesized and evaluated for their ability to diagnose and/or prognose RA. […] The peptides were then tested for IgG ACPA dose-response in samples of synovial fluid taken from both healthy patients and patients with RA.

| Substance | IgG ACPA positive response (strong/moderate) | sensitivity for autoantibodies of the IgG class (in words) | EC50 of the INOVA CCP IgG assay relative to EC50 of the peptide assay (FIG. 4, IgG ACPAs) |
| --- | --- | --- | --- |
| Apo a-4: synthetic citrullinated peptide derived from Apolipoprotein a, Table 8 (Biotin-HWHQ[Cit]TTEYYPNGGLT[Cit]GGLTRNYS[Cit]N-NH2; SMILES CC(C)C[C@H](NC(=O)CNC(=O)CNC(=O)[C@H](CC(N)=O)NC(=O)[C@@H]1CCCN1C(=O)[C@H](Cc1ccc(O)cc1)NC(=O)[C@H](Cc1ccc(O)cc1)NC(=O)[C@H](CCC(=O)O)NC(=O)[C@@H](NC(=O)[C@@H](NC(=O)[C@H](CCCNC(N)=O)NC(=O)[C@H](CCC(N)=O)NC(=O)[C@H](Cc1c[nH]cn1)NC(=O)[C@H](Cc1c[nH]c2ccccc12)NC(=O)[C@H](Cc1c[nH]cn1)NC(=O)CCCC[C@@H]1SC[C@@H]2NC(=O)N[C@@H]21)[C@@H](C)O)[C@@H](C)O)C(=O)N[C@H](C(=O)N[C@@H](CCCNC(N)=O)C(=O)NCC(=O)NCC(=O)N[C@@H](CC(C)C)C(=O)N[C@H](C(=O)N[C@@H](CCCNC(=N)N)C(=O)N[C@@H](CC(N)=O)C(=O)N[C@@H](Cc1ccc(O)cc1)C(=O)N[C@@H](CO)C(=O)N[C@@H](CCCNC(N)=O)C(=O)N[C@@H](CC(N)=O)C(N)=O)[C@@H](C)O)[C@@H](C)O) | strong | – | – |
| Apo a-6: synthetic citrullinated peptide derived from Apolipoprotein a, Table 8 (Biotin-HWHR[Cit]IPLYYPNAGLT[Cit]AGLTRNYS[Cit]N-NH2; SMILES CC[C@H](C)[C@H](NC(=O)[C@H](CCCNC(N)=O)NC(=O)[C@H](CCCNC(=N)N)NC(=O)[C@H](Cc1c[nH]cn1)NC(=O)[C@H](Cc1c[nH]c2ccccc12)NC(=O)[C@H](Cc1c[nH]cn1)NC(=O)CCCC[C@@H]1SC[C@@H]2NC(=O)N[C@@H]21)C(=O)N1CCC[C@H]1C(=O)N[C@@H](CC(C)C)C(=O)N[C@@H](Cc1ccc(O)cc1)C(=O)N[C@@H](Cc1ccc(O)cc1)C(=O)N1CCC[C@H]1C(=O)N[C@@H](CC(N)=O)C(=O)N[C@@H](C)C(=O)NCC(=O)N[C@@H](CC(C)C)C(=O)N[C@H](C(=O)N[C@@H](CCCNC(N)=O)C(=O)N[C@@H](C)C(=O)NCC(=O)N[C@@H](CC(C)C)C(=O)N[C@H](C(=O)N[C@@H](CCCNC(=N)N)C(=O)N[C@@H](CC(N)=O)C(=O)N[C@@H](Cc1ccc(O)cc1)C(=O)N[C@@H](CO)C(=O)N[C@@H](CCCNC(N)=O)C(=O)N[C@@H](CC(N)=O)C(N)=O)[C@@H](C)O)[C@@H](C)O) | strong | – | – |
| Biotin-GGGP[Cit]VVE[Cit]HQSAGGGTK[Cit]GHAKSRPV[Cit]GIHT [[Arg^25]Cit-α32] | – | particularly high sensitivity | 143 fold |
| Bip-2: synthetic citrullinated peptide derived from BiP, Table 8 (Biotin-DVRKDN[Cit]AVQKLR[Cit]EVEKAK[Cit]ALSSQHQ-NH2; SMILES CC(C)C[C@H](NC(=O)[C@H](C)NC(=O)[C@H](CCCNC(N)=O)NC(=O)[C@H](CCCCN)NC(=O)[C@H](C)NC(=O)[C@H](CCCCN)NC(=O)[C@H](CCC(=O)O)NC(=O)[C@@H](NC(=O)[C@H](CCC(=O)O)NC(=O)[C@H](CCCNC(N)=O)NC(=O)[C@H](CCCNC(=N)N)NC(=O)[C@H](CC(C)C)NC(=O)[C@H](CCCCN)NC(=O)[C@H](CCC(N)=O)NC(=O)[C@@H](NC(=O)[C@H](C)NC(=O)[C@H](CCCNC(N)=O)NC(=O)[C@H](CC(N)=O)NC(=O)[C@H](CC(=O)O)NC(=O)[C@H](CCCCN)NC(=O)[C@H](CCCNC(=N)N)NC(=O)[C@@H](NC(=O)[C@H](CC(=O)O)NC(=O)CCCC[C@@H]1SC[C@@H]2NC(=O)N[C@@H]21)C(C)C)C(C)C)C(C)C)C(=O)N[C@@H](CO)C(=O)N[C@@H](CO)C(=O)N[C@@H](CCC(N)=O)C(=O)N[C@@H](Cc1c[nH]cn1)C(=O)N[C@@H](CCC(N)=O)C(N)=O) | moderate | – | – |
| Bip-3: synthetic citrullinated peptide derived from BiP, Table 8 (Biotin-GEDFSETLT[Cit]DLF[Cit]STMKPIVLVGGST[Cit]R-NH2; SMILES CC[C@H](C)[C@H](NC(=O)[C@@H]1CCCN1C(=O)[C@H](CCCCN)NC(=O)[C@H](CCSC)NC(=O)[C@@H](NC(=O)[C@H](CO)NC(=O)[C@H](CCCNC(N)=O)NC(=O)[C@H](Cc1ccccc1)NC(=O)[C@H](CC(C)C)NC(=O)[C@H](CC(=O)O)NC(=O)[C@H](CCCNC(N)=O)NC(=O)[C@@H](NC(=O)[C@H](CC(C)C)NC(=O)[C@@H](NC(=O)[C@H](CCC(=O)O)NC(=O)[C@H](CO)NC(=O)[C@H](Cc1ccccc1)NC(=O)[C@H](CC(=O)O)NC(=O)[C@H](CCC(=O)O)NC(=O)CNC(=O)CCCC[C@@H]1SC[C@@H]2NC(=O)N[C@@H]21)[C@@H](C)O)[C@@H](C)O)[C@@H](C)O)C(=O)N[C@H](C(=O)N[C@@H](CC(C)C)C(=O)N[C@H](C(=O)NCC(=O)NCC(=O)N[C@@H](CO)C(=O)N[C@H](C(=O)N[C@@H](CCCNC(N)=O)C(=O)N[C@@H](CCCNC(=N)N)C(N)=O)[C@@H](C)O)C(C)C)C(C)C) | moderate | – | – |
| FBNT-3: synthetic citrullinated peptide derived from fibronectin, Table 8 (Biotin-GVLV[Cit]WTPPRLVRWTPP[Cit]AQG-NH2; SMILES CC(C)C[C@H](NC(=O)[C@H](CCCNC(=N)N)NC(=O)[C@@H]1CCCN1C(=O)[C@@H]1CCCN1C(=O)[C@@H](NC(=O)[C@H](Cc1c[nH]c2ccccc12)NC(=O)[C@H](CCCNC(N)=O)NC(=O)[C@@H](NC(=O)[C@H](CC(C)C)NC(=O)[C@@H](NC(=O)CNC(=O)CCCC[C@@H]1SC[C@@H]2NC(=O)N[C@@H]21)C(C)C)C(C)C)[C@@H](C)O)C(=O)N[C@H](C(=O)N[C@@H](CCCNC(=N)N)C(=O)N[C@@H](Cc1c[nH]c2ccccc12)C(=O)N[C@H](C(=O)N1CCC[C@H]1C(=O)N1CCC[C@H]1C(=O)N[C@@H](CCCNC(N)=O)C(=O)N[C@@H](C)C(=O)N[C@@H](CCC(N)=O)C(=O)NCC(N)=O)[C@@H](C)O)C(C)C) | moderate | – | – |
| FBNT-5: synthetic citrullinated peptide derived from fibronectin, Table 8 (Biotin-RGVLTVSWE[Cit]STTPDITGY[Cit]ITTTPTNR-NH2; SMILES CC[C@H](C)[C@H](NC(=O)[C@H](CC(=O)O)NC(=O)[C@@H]1CCCN1C(=O)[C@@H](NC(=O)[C@@H](NC(=O)[C@H](CO)NC(=O)[C@H](CCCNC(N)=O)NC(=O)[C@H](CCC(=O)O)NC(=O)[C@H](Cc1c[nH]c2ccccc12)NC(=O)[C@H](CO)NC(=O)[C@@H](NC(=O)[C@@H](NC(=O)[C@H](CC(C)C)NC(=O)[C@@H](NC(=O)CNC(=O)[C@H](CCCNC(=N)N)NC(=O)CCCC[C@@H]1SC[C@@H]2NC(=O)N[C@@H]21)C(C)C)[C@@H](C)O)C(C)C)[C@@H](C)O)[C@@H](C)O)C(=O)N[C@H](C(=O)NCC(=O)N[C@@H](Cc1ccc(O)cc1)C(=O)N[C@@H](CCCNC(N)=O)C(=O)N[C@H](C(=O)N[C@H](C(=O)N[C@H](C(=O)N[C@H](C(=O)N1CCC[C@H]1C(=O)N[C@H](C(=O)N[C@@H](CC(N)=O)C(=O)N[C@@H](CCCNC(=N)N)C(N)=O)[C@@H](C)O)[C@@H](C)O)[C@@H](C)O)[C@@H](C)O)[C@@H](C)CC)[C@@H](C)O) | moderate | – | – |
| FBNT-6: synthetic citrullinated peptide derived from fibronectin, Table 8 (Biotin-RIAP[Cit]ATITGPRATITGY[Cit]YRI[Cit]HHPEHG-NH2; SMILES CC[C@H](C)[C@H](NC(=O)[C@H](CCCNC(=N)N)NC(=O)CCCC[C@@H]1SC[C@@H]2NC(=O)N[C@@H]21)C(=O)N[C@@H](C)C(=O)N1CCC[C@H]1C(=O)N[C@@H](CCCNC(N)=O)C(=O)N[C@@H](C)C(=O)N[C@H](C(=O)N[C@H](C(=O)N[C@H](C(=O)NCC(=O)N1CCC[C@H]1C(=O)N[C@@H](CCCNC(=N)N)C(=O)N[C@@H](C)C(=O)N[C@H](C(=O)N[C@H](C(=O)N[C@H](C(=O)NCC(=O)N[C@@H](Cc1ccc(O)cc1)C(=O)N[C@@H](CCCNC(N)=O)C(=O)N[C@@H](Cc1ccc(O)cc1)C(=O)N[C@@H](CCCNC(=N)N)C(=O)N[C@H](C(=O)N[C@@H](CCCNC(N)=O)C(=O)N[C@@H](Cc1c[nH]cn1)C(=O)N[C@@H](Cc1c[nH]cn1)C(=O)N1CCC[C@H]1C(=O)N[C@@H](CCC(=O)O)C(=O)N[C@@H](Cc1c[nH]cn1)C(=O)NCC(N)=O)[C@@H](C)CC)[C@@H](C)O)[C@@H](C)CC)[C@@H](C)O)[C@@H](C)O)[C@@H](C)CC)[C@@H](C)O) | strong | – | – |
| FBNT-7: synthetic citrullinated peptide derived from fibronectin, Table 8 (Biotin-GP[Cit]EDRVPHSPRED[Cit]VPHS[Cit]NSITLTNG-NH2; SMILES CC[C@H](C)[C@H](NC(=O)[C@H](CO)NC(=O)[C@H](CC(N)=O)NC(=O)[C@H](CCCNC(N)=O)NC(=O)[C@H](CO)NC(=O)[C@H](Cc1c[nH]cn1)NC(=O)[C@@H]1CCCN1C(=O)[C@@H](NC(=O)[C@H](CCCNC(N)=O)NC(=O)[C@H](CC(=O)O)NC(=O)[C@H](CCC(=O)O)NC(=O)[C@H](CCCNC(=N)N)NC(=O)[C@@H]1CCCN1C(=O)[C@H](CO)NC(=O)[C@H](Cc1c[nH]cn1)NC(=O)[C@@H]1CCCN1C(=O)[C@@H](NC(=O)[C@H](CCCNC(=N)N)NC(=O)[C@H](CC(=O)O)NC(=O)[C@H](CCC(=O)O)NC(=O)[C@H](CCCNC(N)=O)NC(=O)[C@@H]1CCCN1C(=O)CNC(=O)CCCC[C@@H]1SC[C@@H]2NC(=O)N[C@@H]21)C(C)C)C(C)C)C(=O)N[C@H](C(=O)N[C@@H](CC(C)C)C(=O)N[C@H](C(=O)N[C@@H](CC(N)=O)C(=O)NCC(N)=O)[C@@H](C)O)[C@@H](C)O) | moderate | – | – |
